Results reported in patent publication US9079876B2, “Imidazole derivatives and preparation method and use thereof” (Beijing Orbiepharm Co., Ltd., priority 2010, dated 2015).
One block for each molecule: values may come before it.

How the values were obtained:
[1] = biological target: T1, cyclooxygenase-1 (COX-1 enzyme) (Homo sapiens, UniProt P23219); test: Human whole blood in vitro activity assay, COX-1 (TXB2 by EIA); format: cell-based; conditions: read-out: IC50 (μg/mL) COX-1 (converted)
T1 construct: from tissue; host or cells: human whole blood without heparin (platelets) from healthy volunteers
Experimental: (§1) Human whole blood in vitro activity study: inhibition of activity of cyclooxygenase-1 (COX-1 enzyme) and cyclooxygenase-2 (COX-2 enzyme) in human blood. […] The blood samples were divided into two parts: one was used for detecting COX-1 enzyme activity, and the other was used for detecting COX-2 enzyme activity. The compounds were dissolved in DMSO, and were prepared in advance into 2 μL solutions in respective concentrations of 500, 50, 5, 0.5, 0.05, 0.005, 0.0005 μg/mL. 200 μL whole blood without heparin was added in the tubes containing the compounds, and then incubated at 37° C. for 1 hour. The activity of COX-1 enzyme was detected by determining the amount of thromboxane B2 (TXB2) synthesized by platelet using an EIA kit. Samples tested without the compounds were negative controls. For COX-2, 200 μL whole blood with heparin was added in the tubes containing the compounds and in the tubes containing 10 μg/mL LPS. LPS control and blank control with solvent only were used respectively for determining the maximum value and the background value of the PGE2 produced therefrom. The samples were incubated at 37° C. for 24 hours, and then centrifuged to collect serum/plasma, which was stored at −80° C. for detection by an EIA kit. The EIA kit of Cayman Company was used, the amounts of TXB2 and PGE2 were determined in accordance to the manufacturer's instructions, and the activities of COX-1 and COX-2 were tested respectively.

[2] = biological target: T2, cyclooxygenase-2 (COX-2 enzyme) (Homo sapiens, UniProt P35354); test: Human whole blood in vitro activity assay, COX-2 (LPS-induced PGE2 by EIA); format: cell-based; conditions: for IC50: LPS, PGE2, read-out: IC50 (μg/mL) COX-2 (converted)
T2 construct: from tissue; host or cells: heparinised human whole blood from healthy volunteers, stimulated with LPS
T2 sequence (P35354 18-604): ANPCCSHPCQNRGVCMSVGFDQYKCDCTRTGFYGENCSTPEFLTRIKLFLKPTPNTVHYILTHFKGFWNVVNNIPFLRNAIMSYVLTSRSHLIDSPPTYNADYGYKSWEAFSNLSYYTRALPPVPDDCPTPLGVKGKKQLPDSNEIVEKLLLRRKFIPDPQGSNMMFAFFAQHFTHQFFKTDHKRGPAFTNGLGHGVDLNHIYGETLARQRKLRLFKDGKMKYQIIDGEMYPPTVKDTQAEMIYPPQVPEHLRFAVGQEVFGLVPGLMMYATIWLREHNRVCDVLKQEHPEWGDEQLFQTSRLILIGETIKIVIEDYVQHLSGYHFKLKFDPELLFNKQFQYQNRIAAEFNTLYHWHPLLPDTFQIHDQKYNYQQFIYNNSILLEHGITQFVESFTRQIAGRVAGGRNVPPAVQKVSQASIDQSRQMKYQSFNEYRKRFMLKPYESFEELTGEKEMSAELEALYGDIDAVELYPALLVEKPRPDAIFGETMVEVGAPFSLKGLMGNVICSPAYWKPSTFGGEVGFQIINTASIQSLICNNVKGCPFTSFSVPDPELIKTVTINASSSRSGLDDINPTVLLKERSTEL
Experimental: as §1

[3] = test system: rat paw swelling induced by carrageenan; test: Rat paw swelling induced by carrageenan (inflammation model); format: in vivo, Wistar rats; conditions: 14 mg/kg intragastric
Experimental: In vivo test: observation of the effect of compound 1 on rat paw swelling induced by carrageenan (inflammation model evaluation)
50 rats were randomized into 5 groups, with 10 animals in each group.
The total volume prepared for each dose group was determined based on the actual weight of the animals. A corresponding volume of purified water was taken, and was added with a sample of the test compounds or of the positive control, to allow homogenous dispersion. Sodium carboxymethyl cellulose was subsequently added, to make a homogenous suspension without obvious agglomerates.
Methods: 50 Wistar rats ([…], 167-199 g) were used in the study, with 25 males and 25 females. They were randomized into 5 groups, i.e. model group, positive control group, compound 1: low, middle and high dose groups. […] 1 hour after intragastric administration, 0.1 ml 1% carrageenan was intradermally injected in the right hind plantar paw to induce inflammation. After induction of inflammation, paw plantar volume and paw thickness were measured every another hour, consecutively for six times. Paw swelling rate (%) and inhibition rate (%) were calculated.
Assay methods: volume of the rat right paw was determined using UGO Basile plethysmograph, and the liquid level was kept constant for in the same animal in each measurement; thickness of the right hind paw were measured at the depiction line in the central paw with a digital vernier caliper.
The group mean and standard deviation of paw swelling rate in each group of animals were calculated, and then the following statistical analysis was performed. The test level was 0.05, and both statistical significance and biological significance were considered in the result analysis.
Levene's Test was used for homogeneity of variance test. Single-factor analysis of variance (ANOVA) was used for statistical analysis, if no statistical significance (P>0.05) was found. Dunnett's test (parametric method) analysis was used for multiple comparison analysis, if ANOVA found statistical significance (P≦0.05).
If there was heterogeneity of variance (P≦0.05), then the Kruskal-Wallis test was used. If the test result of Kruskal-Wallis test was statistically significant (P<0.05), then Dunnett's test (non-parametric method) was used for multiple comparison analysis.

[4] = test system: mice tail suspension immobility time; test: Tail suspension test in mice (anti-depression model); format: in vivo, Male Kunming mice; conditions: 20 mg/kg intragastric, in s (unit assumed)
Experimental: In Vivo Test: Tail Suspension Test in Mice (Evaluation on an Anti-Depression Model)
Male Kunming mice, approximately 20 g, were randomized into six groups, i.e. normal group, positive drug group (fluoxetine 20 mg/kg), compound 1: group A 5 mg/kg, group B 10 mg/kg, group C 20 mg/kg, and group D 40 mg/kg.
Single Dose Test: Mice were normally fed for 1 day and allowed to adapt to the environment. Then the mice were fasted (except water) for 16 hours, and were intragastrically administrated with a single dose of the compound. The normal group was intragastrically administrated with an equivalent amount of distilled water. 40 min after the administration, the mice were inverted and fixed to a tail suspension device, and the distance between the head and the desktop was about 30 cm. Immobility time was recorded with an analysis record system, for the latter 4 min within the 6 min recording period, and was used for statistical analysis.
(§2) Study with Three-Day Consecutive Dosing: Mice were normally fed for 1 day and allowed to adapt to the environment. Then the mice were intragastrically administrated with the test drug for 3 consecutive days (once per day), and the normal group was intragastrically administrated with an equivalent amount of distilled water. The mice were fasted (except water) for 16 hours before the last dosing. 40 min after the last dosing, the mice were inverted and fixed to the tail suspension device, and the distance between the head and the desktop was about 30 cm. Immobility time was recorded with an analysis record system, for the latter 4 min within the 6 min recording period, and was used for statistical analysis.
as §2, with “with Seven-Day” for “with Three-Day”, “intragastrically dosed” for “intragastrically administrated with the test drug”, “for 7” for “for 3”, “days (once/day),” for “days (once per day),”, “last administration.” for “last dosing.”, “last administration,” for “last dosing,”

[5] = test system: mice forced swimming immobility time; test: Forced swimming test in mice (anti-depression model); format: in vivo, Male Kunming mice; conditions: 20 mg/kg intragastric, in s (unit assumed)
Experimental: In Vivo Study: The Forced Swimming Test in Mice (Evaluation on Anti-Depression Model)
Male Kunming mice, approximately 20 g, were randomized into six groups, i.e. normal group, positive drug group (fluoxetine 20 mg/kg), group A (5 mg/kg Compound 1), group B (10 mg/kg Compound 1), group C (20 mg/kg Compound 1), and group D (40 mg/kg Compound 1).
Single Dose Test: Mice were normally fed for 1 day and allowed to adapt to the environment. Then the mice were fasted (except water) for 16 hours, and were intragastrically administrated with a single dose of the test drug, and the normal group was intragastrically administrated with an equivalent amount of distilled water. 40 min after administration, the mice were placed in forced swimming test device (swimming environment: pool diameter 12.5 cm cylinder, water temperature 25° C. and water depth 10 cm). Mice swam for six minutes, and the immobility time (i.e., the time during which the limbs were immobile, or only the feet were thrashing or paddling) was recorded with an animal behavioral record system, for the latter 4 min within the 6 min recording period, and was used for statistical analysis.
(§3) Study with Three-Day Consecutive Dosing: Mice were normally fed for 1 day and allowed to adapt to the environment. Then the mice were intragastrically administrated with the test drug consecutively for three days (once per day). The normal group was intragastrically administrated equivalent amount of distilled water. Mice were fasted (except water) for 16 hours before the last dosing. 40 min after the last dosing, the mice were placed in forced swimming test device (swimming environment: pool diameter 12.5 cm cylinder, water temperature 25° C. and water depth 10 cm). Mice swam for six minutes, and the immobility time (i.e., the time during which the limbs were immobile, or only the feet were thrashing or paddling) was recorded with an animal behavioral record system, for the latter 4 min within the 6 min recording period, and was used for statistical analysis.
as §3, with “Seven-Day” for “Three-Day”, “seven” for “three”

[6] = 3 days consecutive administration
[7] = 7 days consecutive administration
[8] = single dose, 40 min after administration

T1 sequence (P23219 24-599): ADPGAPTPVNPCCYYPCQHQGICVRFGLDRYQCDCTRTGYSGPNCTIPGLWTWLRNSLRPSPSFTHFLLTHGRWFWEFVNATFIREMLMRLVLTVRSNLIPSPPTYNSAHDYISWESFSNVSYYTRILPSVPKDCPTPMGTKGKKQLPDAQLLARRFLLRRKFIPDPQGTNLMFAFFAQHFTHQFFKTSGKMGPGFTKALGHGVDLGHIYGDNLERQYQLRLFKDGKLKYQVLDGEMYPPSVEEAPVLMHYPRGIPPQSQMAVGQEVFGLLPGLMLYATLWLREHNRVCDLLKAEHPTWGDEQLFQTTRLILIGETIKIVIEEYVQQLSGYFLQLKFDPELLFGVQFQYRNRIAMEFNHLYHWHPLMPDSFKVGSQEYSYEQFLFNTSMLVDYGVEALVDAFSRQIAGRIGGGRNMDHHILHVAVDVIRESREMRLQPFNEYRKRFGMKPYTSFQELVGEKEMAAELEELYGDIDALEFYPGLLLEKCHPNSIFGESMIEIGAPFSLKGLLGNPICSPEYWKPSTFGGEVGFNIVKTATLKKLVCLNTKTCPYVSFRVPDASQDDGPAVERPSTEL

Structure (SMILES): CS(=O)(=O)c1ccc(-n2cnc(Cl)c2-c2cccnc2)cn1 [Compound 11, 5-(4-chloro-5-(pyridin-3-yl)-1H-imidazol-1-yl)-2-(methylsulfonyl)pyridine]
- IC50 [1]: > 1490 µM
- IC50COX-1/IC50COX-2 [2]: >12.6
- IC50 [2]: 118 µM

Structure (SMILES): Cc1ccc(-c2cc(C(F)(F)F)nn2-c2ccc(S(N)(=O)=O)cc2)cc1 [Celecoxib, reference compound]
- inhibition rate of plantar paw thickness swelling ([3]; 1 h after inflammation): 30.02%
- inhibition rate of plantar paw volume swelling ([3]; 1 h after inflammation): 0.26%
- plantar paw thickness swelling rate ([3]; 1 h after inflammation): 7.69 ± 3.31%
- plantar paw volume swelling rate ([3]; 1 h after inflammation): 10.87 ± 6.32%
- inhibition rate of plantar paw thickness swelling ([3]; 2 h after inflammation): 60.28%
- inhibition rate of plantar paw volume swelling ([3]; 2 h after inflammation): 38.81%
- plantar paw thickness swelling rate ([3]; 2 h after inflammation): 6.30 ± 2.55 %
- plantar paw volume swelling rate ([3]; 2 h after inflammation): 10.71 ± 6.01 %
- inhibition rate of plantar paw thickness swelling ([3]; 3 h after inflammation): 73.09%
- inhibition rate of plantar paw volume swelling ([3]; 3 h after inflammation): 66.24%
- plantar paw thickness swelling rate ([3]; 3 h after inflammation): 4.64 ± 1.99 %
- plantar paw volume swelling rate ([3]; 3 h after inflammation): 7.16 ± 5.15 %
- inhibition rate of plantar paw thickness swelling ([3]; 4 h after inflammation): 80.52%
- inhibition rate of plantar paw volume swelling ([3]; 4 h after inflammation): 64.29%
- plantar paw thickness swelling rate ([3]; 4 h after inflammation): 3.71 ± 2.58 %
- plantar paw volume swelling rate ([3]; 4 h after inflammation): 9.68 ± 6.13 %
- inhibition rate of plantar paw thickness swelling ([3]; 5 h after inflammation): 82.31%
- inhibition rate of plantar paw volume swelling ([3]; 5 h after inflammation): 56.44%
- plantar paw thickness swelling rate ([3]; 5 h after inflammation): 3.34 ± 2.56 %
- plantar paw volume swelling rate ([3]; 5 h after inflammation): 12.22 ± 6.90 %
- inhibition rate of plantar paw thickness swelling ([3]; 6 h after inflammation): 82.40%
- inhibition rate of plantar paw volume swelling ([3]; 6 h after inflammation): 57.00%
- plantar paw thickness swelling rate ([3]; 6 h after inflammation): 2.72 ± 2.51 %
- plantar paw volume swelling rate ([3]; 6 h after inflammation): 11.91 ± 5.41 %

Structure (SMILES): COc1ccc(-c2c(Cl)ncn2-c2ccc(S(C)(=O)=O)cn2)cc1F [Compound 6, 2-(4-chloro-5-(3-fluoro-4-methoxyphenyl)-1H-imidazol-1-yl)-5-(methylsulfonyl)pyridine]
- IC50 [1]: 8.8 µM
- IC50COX-1/IC50COX-2 [2]: 25.8
- IC50 [2]: 0.34 µM

Structure (SMILES): CNCCC(Oc1ccc(C(F)(F)F)cc1)c1ccccc1 (stereo not drawn) [fluoxetine, reference compound]
- tail suspension Immobility time [4, 6]: 33.95 ± 10.50
- tail suspension Immobility time [4, 7]: 33.76 ± 10.47
- tail suspension Immobility time [4, 8]: 43.52 ± 20.21
- forced swimming Immobility time [5, 6]: 82.42 ± 32.07
- forced swimming Immobility time [5, 7]: 90.94 ± 31.73
- forced swimming Immobility time [5, 8]: 105.04 ± 37.98

Results, then the molecule that gave them:

- IC50 [1]: 86.5 µM
- IC50COX-1/IC50COX-2 [2]: 11.6
- IC50 [2]: 7.45 µM
Structure (SMILES): CS(=O)(=O)c1ccc(-n2cncc2-c2ccccc2)nc1 [Compound 1E, 5-(methylsulfonyl)-2-(5-phenyl-1H-imidazol-1-yl)pyridine]

- IC50 [1]: 0.632 µM
- IC50COX-1/IC50COX-2 [2]: 4.6
- IC50 [2]: 0.137 µM
Structure (SMILES): COc1ccc(-c2c(Cl)ncn2-c2ccc(S(C)(=O)=O)cn2)cc1 [Compound 5, 2-(4-chloro-5-(4-methoxyphenyl)-1H-imidazol-1-yl)-5-(methylsulfonyl)pyridine]

- IC50 [1]: 54 µM
- IC50COX-1/IC50COX-2 [2]: 19.0
- IC50 [2]: 2.84 µM
Structure (SMILES): CS(=O)(=O)c1ccc(-n2cnc(Cl)c2-c2cccnc2)nc1 [Compound 7, 2-(4-chloro-5-(pyridin-3-yl)-1H-imidazol-1-yl)-5-(methylsulfonyl)pyridine]

- IC50 [1]: > 1500 µM
- IC50COX-1/IC50COX-2 [2]: >416
- IC50 [2]: 3.59 µM
Structure (SMILES): CS(=O)(=O)c1ccc(-n2cnc(Cl)c2-c2ccccc2)cn1 [Compound 8, 5-(4-chloro-5-phenyl-1H-imidazol-1-yl)-2-(methylsulfonyl)pyridine]
